Reference: patent US10918741B2, “PSMA-targeting imaging agents” (THE CLEVELAND CLINIC FOUNDATION, priority 2014, dated 2021)
Entries after “also recorded” stand apart in the source; their conditions may differ. Where two headings read alike, the source gives them in different places. Blank lines part the entries; values can stand above or below the compound they belong to. *1 amine or outer side, *2 acyl side, *3 side chain or, on linkers, in order; H or OH if unused. Where a SMILES comes first, the peptide text is derived from it. [ ]: non-standard residue; d: D form. γGlu = O=C(O)[C@H](CCC(=O)[*:2])N[*:1]; X1 = O=C(C1CCC(CN[*:1])CC1)[*:2]; CO = O=C([*:1])[*:2]; Ahx = NCCCCCC(=O)O

Key:
PSMA [1] = molecular target: T1, PSMA (Homo sapiens, UniProt Q04609); test: Competitive binding assay; design: endogenous in cells; host or cells: LNCaP (endogenous PSMA, from ATCC) or PC3-PIP (retrovirally transformed PSMA-positive PC3, from Dr. Michel Sadelain)
T1 sequence (Q04609 whole entry): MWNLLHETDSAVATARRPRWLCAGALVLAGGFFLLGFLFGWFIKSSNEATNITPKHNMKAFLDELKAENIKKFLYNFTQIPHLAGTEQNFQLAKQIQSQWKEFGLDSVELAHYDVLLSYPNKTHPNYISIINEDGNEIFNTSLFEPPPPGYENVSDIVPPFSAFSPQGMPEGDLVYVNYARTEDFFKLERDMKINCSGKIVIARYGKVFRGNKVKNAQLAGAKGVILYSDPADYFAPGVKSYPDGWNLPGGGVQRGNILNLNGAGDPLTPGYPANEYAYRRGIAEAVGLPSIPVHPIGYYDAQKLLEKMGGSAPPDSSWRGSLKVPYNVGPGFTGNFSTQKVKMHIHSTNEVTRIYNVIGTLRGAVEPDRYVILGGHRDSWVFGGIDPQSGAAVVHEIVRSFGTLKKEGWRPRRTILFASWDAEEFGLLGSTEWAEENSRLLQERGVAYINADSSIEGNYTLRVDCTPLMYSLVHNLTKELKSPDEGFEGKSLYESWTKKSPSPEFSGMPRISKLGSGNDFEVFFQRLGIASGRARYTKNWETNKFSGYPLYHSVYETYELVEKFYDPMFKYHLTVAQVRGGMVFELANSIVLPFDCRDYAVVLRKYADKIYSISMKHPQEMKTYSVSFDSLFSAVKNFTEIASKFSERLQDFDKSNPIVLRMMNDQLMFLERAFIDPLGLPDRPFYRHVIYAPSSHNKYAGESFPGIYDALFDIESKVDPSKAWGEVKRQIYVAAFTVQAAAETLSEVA
Procedure: The prostate cancer cell line LNCaP (PSMA-positive) was obtained from American Type Culture Collection (Manassas, Va.). Retrovirally transformed PSMA positive PC3-PIP cells and transfection controlled PC3-flu cells were obtained from Dr. […] (Laboratory of Gene Transfer and Gene Expression, Gene Transfer and Somatic Cell Engineering Facility, Memorial-Sloan Kettering Cancer Center, New York, N.Y.). Cells were grown at 37° C. and 5% CO2 under a humidified atmosphere. […] The mixture was centrifuged at 3,000 g for 5 min at 4° C., then washed three times with 500 μL of cold PBS. […] The concentration required to inhibit 50% of binding was determined (IC50) by Graph Pad Prism 3.0.

[2] = Biodistribution study of [Al^18F]5; assay type: in vivo, mice; conditions: male, NSG, mouse, total radioactivity
Procedure: (§1) Positron emission tomography and biodistribution study of [Al^18F]5: Male NSG mice at least 6 weeks old were subcutaneously implanted with two human PC3-PIP (PSMA+) tumor xenographs. When one of the tumors reached 0.5 mL in volume, imaging and biodistribution studies were conducted. For imaging, 0.3-0.4 mCi of [Al^18F]5 was injected via the tail vein. The mouse was anesthetized with isoflurane and imaged at 1 hour post injection on a clinical PET/CT scanner (Biograph mCT, Siemens Molecular Imaging, Hoffman Estates, Ill.) using super-resolution sampling and iterative deconvolution processing. For the biodistribution study without imaging, 50-150 μCi of [Al^18F]5 was injected in PC3-PIP tumor bearing mice which were sacrificed at one and two hours post injection for biodistribution measurements.

[3] = test system: PC3-PIP (PSMA+) tumor xenographs; test: Biodistribution study of [Al^18F]5; assay type: in vivo, mice; conditions: for Biodistribution: Tumor (PC3PIP): preliminary
Procedure: as §1

PSMA [4] = molecular target: T1, PSMA; conditions: cited from earlier work; for (per patient) lesion detection rate: 37 patients with prostate cancer; for non-PSMA related background in humans, in words / lesion detection in humans, in words: early human trials
[5] = published values, cited from earlier work; for Blood pool activity: 2 hours post injection; for liver background: at 2 hours
[6] = test system: PC3-pip (PSMA-positive) and PC3-flu (PSMA-negative) tumors; test: NIR fluorescence-guided robotic surgery (da Vinci Si); assay type: in vivo, mice
Description: Mouse carcasses were operated on using a da Vinci Si Robot (Intuitive Surgical, Sunnyvale, Calif.). A portable dark box was used to minimize ambient light and to allow optimal fluorescence detection. Three robotic instruments (the novel endoscope to detect NIR fluorescence, a scissor, and a grasper) were inserted through robotic trocars positioned across the top cover of the dark box. The tumors were excised using the new robotic camera to detect the fluorescence of the PSMA-binding conjugate. All procedures were done by a single surgeon (R.S.), who had extensive experience in robotic surgery. Tumor specimens were sent for histopathological analysis to assess margin status.

[7] = test system: PC3-pip (PSMA-positive) and PC3-flu (PSMA-negative) tumors; test: Preoperative NIR imaging with the Maestro in vivo imaging system; design: species or system mice
Procedure: PC3-pip (PSMA-positive) and PC3-flu (PSMA-negative) cells were injected subcutaneously 1.0×10^6 PC3 cells with 200 µL of matrigel into each flank of 6 NOD SCID Gamma (NSG) mice. Chang et al., Cancer Res.; 59:3192-3198 (1999). After the tumors reached a size of ˜5 mm, the mice were anesthetized with isoflurane and were administered 2 or 10 nmol of PSMA-binding fluorescent conjugate via tail vein injection. Preoperative NIR imaging was performed using the Maestro in vivo imaging system (Cambridge Research and Instrumentation, Hopkinton, Mass.). The mice were imaged immediately and at 1-hour intervals after injection of the PSMA targeting fluorescent compound for up to 4 hours. The mice were killed once PSMA+ and PSMA− tumors could be visually differentiated by NIR imaging. The method used was CO2 asphyxiation followed by cervical dislocation.

[8] = blood, read-out: Biodistribution: Blood
[9] = liver, read-out: Biodistribution: Liver

affinity for PSMA, comparison in words (PSMA [1]): same affinity for PSMA as compound 4
Compound: NC(=O)[C@H](CCCCNC(=S)Nc1ccc(CC2CN(CC(=O)O)CCN(CC(=O)O)CCN2CC(=O)O)cc1)NC(=O)[C@H](Cc1ccc(O)cc1)NC(=O)[C@H](CCC(=O)O)NC(=O)[C@H](CCC(=O)O)NC(=O)[C@H](CCC(=O)O)NC(=O)CCCCCNC(=O)CC[C@H](NC(=O)N[C@@H](CCC(=O)O)C(=O)O)C(=O)O (single isomer, unassigned) [Compound 5, E′E-Ahx-EEEYK(Bn-NOTA)-NH2]

tissue uptake at 1 h [2, 8]: ~0.18 %ID/g | tissue uptake at 2 h [2, 8]: 0.04 %ID/g | tissue uptake at 2 h ([2]; bone, read-out: Biodistribution: Bone): 0.1 %ID/g | tissue uptake at 1 h [2, 9]: ~0.4 %ID/g | tissue uptake at 2 h [2, 9]: 0.17 %ID/g | tissue uptake at 2 h ([2]; muscle, read-out: Biodistribution: Muscle): 0.01 %ID/g | tissue uptake at 2 h ([2]; tumor (PC3-PIP), n = 6, preliminary, read-out: Biodistribution: Tumor (PC3PIP)): 4.6 %ID/g | Biodistribution: Blood ([3]; 1 hour): 0.18% ± 0.09% | Biodistribution: Bone ([3]; 1 hour): 0.39% ± 0.28% | Biodistribution: Heart ([3]; 1 hour): 0.14% ± 0.11% | Biodistribution: Kidney ([3]; 1 hour): 16.82% ± 5.60% | Biodistribution: Liver ([3]; 1 hour): 0.41% ± 0.10% | Biodistribution: Lung ([3]; 1 hour): 0.21% ± 0.05% | Biodistribution: Muscle ([3]; 1 hour): 0.19% ± 0.12% | Biodistribution: Small Intestine ([3]; 1 hour): 0.43% ± 0.51% | Biodistribution: Spleen ([3]; 1 hour): 0.29% ± 0.14% | Biodistribution: Stomach ([3]; 1 hour): 0.10% ± 0.03% | Biodistribution: Thyroid ([3]; 1 hour): 0.11% ± 0.02% | Biodistribution: Tumor (PC3PIP) ([3]; 1 hour, n = 4): 6.91% ± 1.44% | Biodistribution: Heart ([3]; 2 hour): 0.04% ± 0.01% | Biodistribution: Kidney ([3]; 2 hour): 5.96% ± 2.17% | Biodistribution: Lung ([3]; 2 hour): 0.07% ± 0.04% | Biodistribution: Small Intestine ([3]; 2 hour): 0.18% ± 0.02% | Biodistribution: Spleen ([3]; 2 hour): 0.10% ± 0.04% | Biodistribution: Stomach ([3]; 2 hour): 0.03% ± 0.02% | Biodistribution: Thyroid ([3]; 2 hour): 0.05% ± 0.00% | Tumor:blood ([3]; 2 hour): 115 | Tumor:bone ([3]; 2 hour): 46 | Tumor:liver ([3]; 2 hour): 27 | Tumor:muscle ([3]; 2 hour): 458 | Tumor:spleen ([3]; 2 hour): 46 | Biodistribution: Tumor (PC3PIP) ([3]; 2 hour, n = 6): 4.58% ± 0.55% | excretion in words ([3]; mouse, in vivo): very fast renal excretion
Compound: NC(=O)[C@H](CCCCNC(=S)Nc1ccc(CC2CN(CC(=O)O)CCN(CC(=O)O)CCN2CC(=O)O)cc1)NC(=O)[C@H](Cc1ccc(O)cc1)NC(=O)[C@H](CCC(=O)O)NC(=O)[C@H](CCC(=O)O)NC(=O)[C@H](CCC(=O)O)NC(=O)CCCCCNC(=O)CC[C@H](NC(=O)N[C@@H](CCC(=O)O)C(=O)O)C(=O)O (single isomer, unassigned) [[Al^18F]5]
dissociation of ^18F-fluoride from the complex (from bone uptake) ([3]; mouse, in vivo): no significant dissociation of ^18F-fluoride from the complex

IC50 (PSMA [1]; LNCaP or PC3-PIP cells, 12 nM [^3H] ligand, 1 hour at 37° C., 95% confidence intervals in parentheses): 2.2 nM
Compound: O=C(O)CC[C@H](NC(=O)N[C@@H](CSC1CC(=O)N(CC2CCC(C(=O)NCCCCCC(=O)N[C@H](CCC(=O)O)C(=O)N[C@H](CCC(=O)O)C(=O)N[C@H](CCC(=O)O)C(=O)NCC(=O)O)CC2)C1=O)C(=O)O)C(=O)O (stereo partly shown) [Compound 1, ZJ-MCC-Ahx-dEdEdEG]
affinity for PSMA, comparison in words (PSMA [1]): affinity comparable to the parent urea ligand; also recorded: Neither compound came close to matching the affinity of RBI-1033

Compound: O=C(O)CC[C@H](NC(=O)N[C@@H](CSC1CC(=O)N(CC2CCC(C(=O)NCCCCCC(=O)N[C@@H](Cc3ccc(O)cc3)C(=O)N[C@@H](Cc3ccc(O)cc3)C(=O)N[C@@H](Cc3ccc(O)cc3)C(=O)NCC(=O)O)CC2)C1=O)C(=O)O)C(=O)O (stereo partly shown) [Compound 2, ZJ-MCC-Ahx-YYYG]
affinity for PSMA, comparison in words (PSMA [1]): affinity comparable to the parent urea ligand; also recorded: Neither compound came close to matching the affinity of RBI-1033

affinity for PSMA, comparison in words (PSMA [1]): equivalent to compound 1
Compound: NC(=O)[C@H](CS)NC(=O)CNC(=O)CNC(=O)CNC(=O)[C@H](Cc1ccc(O)cc1)NC(=O)CNC(=O)[C@@H](CCC(=O)O)NC(=O)[C@@H](CCC(=O)O)NC(=O)[C@@H](CCC(=O)O)NC(=O)CCCCCNC(=O)C1CCC(CNC(=O)CC[C@H](NC(=O)N[C@@H](CCC(=O)O)C(=O)O)C(=O)O)CC1 (stereo partly drawn) [Compound 3, E′E-Amc-Ahx-dEdEdEGYGGGC-NH2] ({Glu-CO-γGlu}-[X1][Ahx][dE][dE][dE]GYGGGC-NH2)

Compound: O=C([O-])CN(CCN(CC(=O)[O-])Cc1cc(CCC(=O)NCCCCCC(=O)NCCCC[C@H](NC(=O)N[C@@H](CCC(=O)O)C(=O)O)C(=O)O)ccc1[O-])Cc1cc(CCC(=O)O)ccc1[O-].[68Ga+3].[OH3+] [Glu-NH—CO—NHLys(Ahx)-[^68Ga(HBED-CC)]]
(per patient) lesion detection rate (PSMA [4]; at PSA <2.2 ng/ml): 60% | (per patient) lesion detection rate (PSMA [4]; at PSA >2.2 ng/ml): 100% | non-PSMA related background in humans, in words (PSMA [4]): significant uptake in salivary glands, lacrimal glands, and liver

Compound: O=C(O)CC[C@H](NC(=O)N[C@@H](CSCc1ccc([18F])cc1)C(=O)O)C(=O)O [^18F-DCFBC]
Blood pool activity [5]: 0.4 % ID/g | liver background [5]: 2.1 % ID/g | lesion detection in humans, in words (PSMA [4]): detected lymph node and bone metastases at 2 hr post injection | non-PSMA related background in humans, in words (PSMA [4]): elevated liver background and unexpected blood pool retention

Compound: O=C(O)CC[C@H](NC(=O)N[C@@H](CCCCNC(=O)c1ccc([18F])nc1)C(=O)O)C(=O)O [^18F-DCFPyL]
Blood pool activity [5]: 0.4 % ID/g | liver background [5]: 2.1 % ID/g

Compound: O=C(O)CC[C@H](NC(=O)N[C@@H](CCCCNCc1ccc([123I])cc1)C(=O)O)C(=O)O [^123I-MIP-1072]
Blood pool activity [5]: 0.21 % ID/g | liver background [5]: 2.17 % ID/g | lesion detection in humans, in words (PSMA [4]): detection of soft tissue and bone metastases, as well as tumors in the prostate bed | non-PSMA related background in humans, in words (PSMA [4]): significant uptake in salivary glands, lacrimal glands, and liver

Compound: O=C(O)CC[C@H](NC(=O)N[C@@H](CCCCNC(=O)Nc1ccc([123I])cc1)C(=O)O)C(=O)O [^123I-MIP-1095]
lesion detection in humans, in words (PSMA [4]): detection of soft tissue and bone metastases, as well as tumors in the prostate bed | non-PSMA related background in humans, in words (PSMA [4]): significant uptake in salivary glands, lacrimal glands, and liver

Compound: ZJ-MCC-dEdEdEGK(IRDye800cw)G
mice with fluorescence detected from the PSMA positive tumors during robotic surgery ([6]; 10 nmol, 120 minutes after injection): 2 of 3 | intensity of fluorescence during robotic surgery ([6]; PSMA positive tumors): weak | fluorescence in the PSMA negative (control) tumors ([6]; mouse, in vivo): no tumor fluorescence was identified in any of the mice | mice with proper targeting on presurgical NIR imaging ([7]; 10 nmol): Two of the 3 mice | preoperative NIR fluorescence imaging result in words ([7]; Maestro in vivo imaging system): strong fluorescence signal from the tracer in the right flank (PSMA positive tumor), bladder, and urethra | time to detect peak fluorescence from the PSMA-positive tumors ([7]; first 3 mice, Maestro imaging system): 120 min | signal intensity from the tumor ([7]; within 240 minutes): already partially decreased
